Converted amounts (≈) assume the structure as drawn. Where two headings read alike, the source gives them in different places.
Columns and labels:
[1] = system: ACC; experiment: IC50 quoted for Soraphen A in the thermal shift text; assay type: biochemical
[2] = system: ACC1; details: ACC1 isolated from rat, mouse, monkey and human; cited from earlier work
[3] = system: ACC2; details: ACC2 isolated from rat, mouse, monkey and human; cited from earlier work
[4] = target: ACC1 (Homo sapiens, UniProt Q13085); experiment: In vitro ACC1 inhibition assay (ADP-Glo); assay type: biochemical; details: read-out: ACC1
In short: (§1)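 Enzyme (human ACC1 or ACC2) and compound, serially diluted 1:3 over 11 points from a 600 uM DMSO stock, were preincubated 15 min before substrate addition.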

[5] = system: fatty acid synthesis; experiment: In Vivo Fatty Acid Synthesis Study ([C14]-acetate incorporated into rat liver tissue); details: FIG. 16
Experimental: Compounds of the present invention were also assayed in an In Vivo Fatty Acid Synthesis Study as described by Harwood et al. “Isozyme-nonselective N-Substituted Bipiperidylcarboxamide Acetyl-CoA Carboxylase Inhibitors Reduce Tissue Malonyl-CoA Concentrations, Inhibit Fatty Acid Synthesis, and Increase Fatty Acid Oxidation in Cultured Cells and in Experimental Animals” Journal of Biological Chemistry (2008) 278, 37099-37111. An exemplary procedure for the assay, which measures the amount of radioactive [C^14]-acetate incorporated into rat liver tissue, follows.
Animals given food ad water ad libitum were treated orally at a volume of 1.0 mL/200 g body weight (rat) with either an aqueous solution containing 0.5% methylcellulose (vehicle), or an aqueous solution containing 0.5% methylcellulose plus test compound. One to four hours after compound administration, animals received an intraperitoneal injection of 0.5 mL of [C^14]-acetate (64 uCi/mL; […]). […] The pooled organic fractions were transferred to liquid scintillation vials, dried under nitrogen, dissolved in 7 mL of Aquasol liquid scintillation fluid, and assessed for radioactivity using a Beckman 6500 liquid scintillation counter. Results were recorded as disintigrations per minute (DPM) per milligram of tissue.

[6] = target: ACC2 (Homo sapiens, UniProt O00763); experiment: In vitro ACC2 inhibition assay (ADP-Glo); assay type: biochemical; details: read-out: ACC2
Sequence of ACC2 (Homo sapiens, UniProt O00763) (O00763 whole entry, species assumed): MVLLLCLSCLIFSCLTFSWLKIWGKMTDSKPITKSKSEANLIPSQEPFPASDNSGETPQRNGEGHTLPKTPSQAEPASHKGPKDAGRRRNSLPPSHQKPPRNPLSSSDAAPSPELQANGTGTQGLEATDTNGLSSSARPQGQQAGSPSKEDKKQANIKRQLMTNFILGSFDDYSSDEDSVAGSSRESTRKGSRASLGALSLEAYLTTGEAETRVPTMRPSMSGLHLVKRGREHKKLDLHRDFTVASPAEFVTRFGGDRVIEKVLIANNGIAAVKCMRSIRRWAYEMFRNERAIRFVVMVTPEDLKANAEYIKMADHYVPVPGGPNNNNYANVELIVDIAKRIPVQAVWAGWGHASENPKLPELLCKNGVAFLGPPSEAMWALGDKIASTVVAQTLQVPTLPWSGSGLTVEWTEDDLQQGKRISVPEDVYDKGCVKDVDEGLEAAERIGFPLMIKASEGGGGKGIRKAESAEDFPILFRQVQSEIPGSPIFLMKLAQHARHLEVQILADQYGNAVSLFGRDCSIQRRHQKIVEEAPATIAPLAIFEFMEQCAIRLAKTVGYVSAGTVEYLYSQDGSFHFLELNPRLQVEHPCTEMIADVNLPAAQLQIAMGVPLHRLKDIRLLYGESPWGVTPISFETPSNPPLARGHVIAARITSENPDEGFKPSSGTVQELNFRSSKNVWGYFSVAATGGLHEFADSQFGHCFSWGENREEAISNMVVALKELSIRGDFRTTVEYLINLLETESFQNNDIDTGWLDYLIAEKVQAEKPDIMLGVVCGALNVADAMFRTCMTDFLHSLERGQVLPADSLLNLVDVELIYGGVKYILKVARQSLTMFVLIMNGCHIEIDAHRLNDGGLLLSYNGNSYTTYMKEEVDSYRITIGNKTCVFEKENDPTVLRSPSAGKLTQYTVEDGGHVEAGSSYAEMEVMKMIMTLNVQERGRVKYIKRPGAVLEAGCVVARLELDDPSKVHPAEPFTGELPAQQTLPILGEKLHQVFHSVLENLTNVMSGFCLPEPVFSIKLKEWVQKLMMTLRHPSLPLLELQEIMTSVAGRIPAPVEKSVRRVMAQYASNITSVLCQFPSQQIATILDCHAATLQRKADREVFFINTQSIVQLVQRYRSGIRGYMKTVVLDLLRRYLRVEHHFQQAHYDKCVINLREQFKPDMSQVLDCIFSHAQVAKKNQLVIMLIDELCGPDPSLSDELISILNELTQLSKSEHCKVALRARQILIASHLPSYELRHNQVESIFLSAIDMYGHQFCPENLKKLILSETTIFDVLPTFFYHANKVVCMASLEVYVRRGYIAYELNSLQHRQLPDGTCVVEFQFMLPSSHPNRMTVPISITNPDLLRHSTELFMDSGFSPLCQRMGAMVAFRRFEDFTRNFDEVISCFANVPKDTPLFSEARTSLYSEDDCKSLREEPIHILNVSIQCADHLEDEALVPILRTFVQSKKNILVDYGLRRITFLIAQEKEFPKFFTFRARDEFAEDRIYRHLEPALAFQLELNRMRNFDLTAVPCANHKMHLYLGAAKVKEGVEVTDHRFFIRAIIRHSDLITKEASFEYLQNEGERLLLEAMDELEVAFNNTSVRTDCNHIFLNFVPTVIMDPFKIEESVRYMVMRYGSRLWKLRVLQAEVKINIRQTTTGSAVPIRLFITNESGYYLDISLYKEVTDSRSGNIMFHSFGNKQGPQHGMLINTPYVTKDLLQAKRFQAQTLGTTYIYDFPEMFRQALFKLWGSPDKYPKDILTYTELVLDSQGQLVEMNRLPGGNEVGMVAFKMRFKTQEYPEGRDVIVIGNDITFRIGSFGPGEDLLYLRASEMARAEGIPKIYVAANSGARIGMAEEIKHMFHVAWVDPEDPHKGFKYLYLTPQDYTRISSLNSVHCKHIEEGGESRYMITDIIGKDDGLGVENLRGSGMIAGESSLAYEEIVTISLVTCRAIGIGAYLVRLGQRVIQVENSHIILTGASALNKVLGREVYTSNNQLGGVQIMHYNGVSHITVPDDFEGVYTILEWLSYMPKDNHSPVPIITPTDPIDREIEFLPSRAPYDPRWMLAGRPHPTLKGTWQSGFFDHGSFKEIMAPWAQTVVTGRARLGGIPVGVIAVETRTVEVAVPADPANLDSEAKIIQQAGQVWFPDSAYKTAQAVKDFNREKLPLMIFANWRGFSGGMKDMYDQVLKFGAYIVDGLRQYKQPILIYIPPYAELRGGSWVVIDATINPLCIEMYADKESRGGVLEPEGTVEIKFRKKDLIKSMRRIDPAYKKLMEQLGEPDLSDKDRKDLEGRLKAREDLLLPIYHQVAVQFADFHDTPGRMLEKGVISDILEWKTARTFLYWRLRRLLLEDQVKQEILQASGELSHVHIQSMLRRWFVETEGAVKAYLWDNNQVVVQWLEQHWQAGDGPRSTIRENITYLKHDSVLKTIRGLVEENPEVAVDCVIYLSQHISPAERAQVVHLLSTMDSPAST
In short: as §1

[7] = system: target protein (ACC); experiment: Thermal Shift Assay (TSA); assay type: binding; details: FIG. 3
Description: 103, 43, 15835-15840, the entirety of which is incorporated herein by reference.

[8] = system: Candida species; experiment: Anti-Fungal Activity Assay, summary over Candida species; assay type: cell-based; details: summary of Table 3
Experimental: (§2) Compounds of the present invention were evaluated in an Anti-Fungal Activity Assay. An exemplary procedure for the assay, which measures the susceptibility of various Candida species to anti-fungal compounds, follows. Compounds to be tested (including fluconazole and amphotericin B) were dissolved in DMSO to obtain a solution having a concentration of 1 mg/mL. […] All species were grown from frozen stock by directly plating on to freshly prepared Sabouraud Dextrose agar (BD, Difco) and incubated overnight in ambient air at 35° C. for 24 h. A direct suspension was prepared in RPMI 1640+MOPS (Lonza, Biowhittaker) by taking individual colonies from the overnight cultures using sterile swabs soaked in sterile saline. The concentration of the suspension was determined using pre-determined standard curves. […] The original CLSI guidelines focused on reading Candida MICs after 48 h of incubation. As reading after only 24 h offers a clear advantage of patient care, QC limits are being established for all drugs at 24 h. That being said there are no known interpretive breakpoints for amphotericin B at 24 h and the current fluconazole interpretive breakpoints are based on a 48 h reading. The MIC breakpoints for the Pharmaron test compounds were recorded at 48 h, and for the soraphen the 24 h time-point was added. All MIC determinations were achieved by visually comparing the growth found in the antibiotic challenged wells to that of the growth control.

[9] = system: C. albicans ATCC 90028; experiment: Anti-Fungal Activity Assay (broth microtiter MIC); assay type: cell-based; details: 3 replicates, test compounds read at 48 h
Experimental: as §2

[10] = system: C. krusei ATCC 6258; experiment: Anti-Fungal Activity Assay (broth microtiter MIC); assay type: cell-based; details: 3 replicates, test compounds read at 48 h
Experimental: as §2

[11] = system: C. parapsilosis ATCC 22019; experiment: Anti-Fungal Activity Assay (broth microtiter MIC); assay type: cell-based; details: 3 replicates, test compounds read at 48 h
Experimental: as §2

[12] = system: HepG2 cells; experiment: [14C] Acetate Incorporation HepG2 Cellular Assay; assay type: cell-based; details: Homo sapiens; HepG2 cells, FIG. 4; read-out: IC50, incorporation of isotopically labeled acetate into fatty acids
Experimental: Compounds of the present invention were evaluated in a [^14C] Acetate Incorporation Assay. An exemplary procedure for the assay, which measures the incorporation of isotopically labeled acetate into fatty acids, follows. HepG2 cells were maintained in T-75 flasks containing DMEM supplemented with 2 mM 1-glutamine, penicillin G (100 units/ml), streptomycin 100 μg/ml with 10% FBS and incubated in a humidified incubator with 5% CO2 at 37° C. Cells were fed every 2-3 days. On Day 1. cells were seeded in 24 well plates at a density of 1.2×10^5 cells/ml/well with the growth medium. On Day 3 the medium was replaced with fresh medium containing 10% FBS. On Day 4 the medium was replaced with 0.5 ml of fresh medium containing test compound (in DMSO; final [DMSO] is 0.5%) and the cells were incubated at 37° C. for 1 hour. To one copy of plate, 4 ul of [2-^14C]acetate (56 mCi/mmol; 1 mCi/ml; PerkinElmer) was added and the cells were incubated at 37° C., 5% CO2 for 5 hrs. To a second copy of plate, 4 ul of cold acetate were added and the cells were incubated at 37° C., 5% CO2 for 5 hrs. This plate was used for protein concentration measurement. Medium was removed and placed in a 15 ml centrifuge tube (BD, Falcon/352096). Cells were rinsed with 1 ml PBS, then aspirated, and the rinse and aspiration steps were repeated. 0.5 ml of 0.1N NaOH were added to each well and let sit at RT to dissolve cell monolayer. The remaining cell suspension was pooled with medium. For the protein determination plate, an aliquot was removed for protein determination (25 ul). […] 5 ml petroleum ether was added per tube, shaken vigorously, centrifuged at 1000 rpm for 5 min, and 500 uL of the petroleum ether layer was transferred to tubes for Microbeta reading, then 2 ml Aquasol-2 were added to each tube, the tubes were shaken and counted with a Microbeta Liquid Scintillation Counter (Perkin Elmer).
The remaining petroleum ether layer was discarded and the aqueous phase reserved for fatty acid extractions. […] 2 ml of Aquasol-2 was added to each vial, and the vials were shaken and counted on a scintillation counter.

[13] = system: LNCaP (prostate cancer cell line) cells; experiment: Cancer Cell Viability Assay; assay type: cell-based, human; details: concentration of 5 uM, FIG. 5
Experimental: Compounds of the invention were also assayed in a Cancer Cell Viability Assay as described by Beckers et al. “Chemical Inhibition of Acetyl-CoA Carboxylase Induces Growth Arrest and Cytotoxicity Selectively in Cancer Cells” Cancer Res. (2007) 67, 8180-8187. An exemplary procedure for the assay, which measures the percentage of cancer cells surviving following administration of inhibitor compounds, follows.
LNCaP (prostate cancer cell line) cells plated at 4×10^5 per 6 cm dish were incubated at 37° C., and the following day they were treated with increasing concentrations of inhibitor compounds and incubated. Viable cells and the percentage of dead cells was counted and calculated every day for 5 days from day 0, using trypan blue staining.

[14] = Candida albicans, ATCC90028, 48 h, read-out: MIC
[15] = Pichia kudriavzevii, ATCC6258, 48 h, read-out: MIC
[16] = Lodderomyces parapsilosis, ATCC22019, 48 h, read-out: MIC

SMILES | IC50 [1] [nM] | IC50 [2] [nM] | IC50 [3] [nM] | IC50 [4] [nM] | fatty acid (FA) synthesis in rats [5] | IC50 [6] [nM] | thermal melting point change compared with Soraphen A [7] | anti-fungal activity MICs [8] | MIC [9] [µg/mL] | MIC [9, 14] [µg/mL] | MIC [10] [µg/mL] | MIC [10, 15] [µg/mL] | MIC [11] [µg/mL] | MIC [11, 16] [µg/mL] | IC50 [12] [nM] | cell population growth [13]
CO[C@H]1CCCC[C@@H](c2ccccc2)OC(=O)[C@@H](C)[C@@]2(O)O[C@H]([C@@H](C)[C@H](O)[C@H]2OC)[C@@H](C)/C=C/[C@H]1OC [Soraphen A] | 4 |  |  |  |  |  |  |  |  |  |  |  |  |  |  | 
O=C(c1c2ccccc2cc2ccccc12)N1CCC(N2CCC[C@@H](C(=O)N3CCOCC3)C2)CC1 [CP-640186] |  | ~60 | ~60 |  |  |  |  |  |  |  |  |  |  |  |  | 
COc1ccccc1[C@H](Cn1c(=O)n(C(C)(C)C(=O)O)c(=O)c2c(C)c(-c3ncco3)sc21)O[C@H]1CC[C@@H](O)CC1 [I-278, 2-[1-[(2R)-2-[(4-hydroxycyclohexyl)oxy]-2-(2-methoxyphenyl)ethyl]-5-methyl-6-(1,3-oxazol-2-yl)-2,4-doxo-1H,2H,3H,4H-thieno[2,3-d]pyrimidin-3-yl]-2-methylpropanoic acid] |  |  |  | < 100 | dose-dependent decrease in FA synthesis | < 100 |  |  |  |  |  |  |  |  |  | 
COc1ccccc1[C@H](Cn1c(=O)n(C(C)(C)C(N)=O)c(=O)c2c(C)c(-c3ncco3)sc21)OC(C)C [I-174, 2-[1-[(2R)-2-(2-methoxyphenyl)-2-(propan-2-yloxy)ethyl]-5-methyl-6-(1,3-oxazol-2-yl)-2,4-dioxo-1H,2H,3H,4H-thieno[2,3-d]pyrimidin-3-yl]-2-methylpropanamide] |  |  |  | < 100 |  | < 100 | equivalent to that of Soraphen A | low ug/mL range | 2 (≈ 3.8 µM) | 2 (≈ 3.8 µM) | 2 (≈ 3.8 µM) | 2 (≈ 3.8 µM) | 8 (≈ 15.2 µM) | 8 (≈ 15.2 µM) | < 100 | 
COc1ccccc1[C@@H](Cn1c(=O)n(C(C)(C)C(=O)O)c(=O)c2c(C)c(-c3ncco3)sc21)OC(C)C [I-158, 2-[1-[(2S)-2-(2-methoxyphenyl)-2-(propan-2-yloxy)ethyl]-5-methyl-6-(1,3-oxazol-2-yl)-2,4-dioxo-1H,2H,3H,4H-thieno[2,3-d]pyrimidin-3-yl]-2-methylpropanoic acid] |  |  |  | < 100 |  | < 100 | equivalent to that of Soraphen A | low ug/mL range | 2 (≈ 3.79 µM) | 2 (≈ 3.79 µM) | 2 (≈ 3.79 µM) | 2 (≈ 3.79 µM) | 8 (≈ 15.2 µM) | 8 (≈ 15.2 µM) | < 100 | completely inhibit cell population growth

— patent US9453026B2, “ACC inhibitors and uses thereof” (Gilead Apollo, Inc., priority 2011, dated 2016)
